Results as given in patent US9132126B2, “Phenyl-isoxazole derivatives and preparation process thereof” (priority 2011, dated 2015).
≈ marks a conversion by molar mass, not a printed value.

Legend:
[1] = tested on: novel influenza virus (K09); test: microbe, parasite or virus in culture; format: cell-based; settings: for SI value K09: CC50/EC50; for EC50: MDCK, 72 h, read-out: Plaque reduction (Experimental Example 2) EC50
[2] = Cytotoxicity assay using MTT; format: cell-based; settings: dog, MDCK cells infected with influenza virus (K09), MDCK cell infected with K09; compound 24 hours; read-out: MTT assay (Experimental Example 3) CC50
Method: In this experiment, a cell was infected with a virus, and then the virus was directly treated with a compound so as to determine if the virus-infected cell has toxicity. For this, a cell (MDCK) was infected with an influenza virus (K09) for 1 hour, and treated with the compound with different concentrations for 24 hours. Then, the cell was treated with a MTT reagent for 1 hour. After 1 hour, a formazan crystal produced by the MTT reagent was dissolved in DMSO, and the absorbance was measured by an ELISA reader so as to determine CC50.
measured by MTT assay. A maximum concentration of the compound, at which the number of cells is reduced to half or more compared to that of a control group

[3] = tested on: influenza virus (K09) expressing GFP; format: cell-based; set-up: key: ◯ = effective; X = ineffective
[4] = tested on: H1N1 influenza virus (solomon); test: microbe, parasite or virus in culture; format: cell-based; settings: Solomon (H1N1); for EC50: Influenza A virus, read-out: EC50
[5] = tested on: novel influenza virus (B/Field); test: microbe, parasite or virus in culture; format: cell-based; settings: for SI value: B/Field, CC50/EC50; for EC50: unidentified influenza virus
[6] = Acute toxicity test through oral administration in a rat; format: in vivo; settings: Sprague-Dawley (SD), in vivo; male SD-Rat, single oral administration, 14 days observation
Method: The acute toxicity of the inventive compound was determined through oral administration in a rat. Since the compound is expected to be orally administered in a clinical situation, an oral administration route was selected. A male rat aged 6 weeks (SD-Rat, 220±30 g) was subjected to quarantine, and acclimated for 1 week under a condition of lighting of 12 hours (08:00˜20:00), and luminance of 150-300 Lux at 22±3° C. at a relative humidity of 50±20%, while being freely fed with feed and water. Each of a control group and an experimental group include 8 rats. The control group was orally administered with 0.5% HPMC, and the experimental group was orally administered with a material (different concentrations) suspended in 0.5% HPMC, by using a sonde in an amount in proportion to the measured weight of each individual.
The concentration of the drug administered to the experimental group was set as 2000 mg/kg (the highest concentration for a single dose administration in a non-clinical test), and 1000 mg/kg, and 500 mg/kg (with a common ratio). For 14 days from drug administration, clinical symptoms were observed while the weight change was measured. Test animals that died during the test were subjected to autopsy, and abnormalities of main organs (heart, liver, lung, spleen, kidney, and large intestine) were observed and recorded. On the last day of the test (on the 14th day from the administration), all individuals were subjected to autopsy, and the changes of the organs caused by a test material were observed and compared to those in the control group. In the control group, no rats had died, and abnormalities were not observed through autopsy.
Each group was orally administered in a concentration of 500 mg/kg, 1000 mg/kg, and 2000 mg/kg. For 14 days from the administration, according to the test method, clinical symptoms were observed. […] Also, in the groups administered in various amounts, no individuals died. […] Further, no abnormal responses were observed, and from the autopsy results, no peculiarities were observed.

Row | Structure (SMILES) | SI value K09 [1] | EC50 [1] [µg/mL] | CC50 at 24 h [2] [µg/mL] | GFP reduction (Experimental Example 1) effect [3] | EC50 [4] [µg/mL] | SI value [5] | EC50 [5] [µg/mL] | LD50 at 14 days [6] [mg/kg] | SI value ([4]; CC50/EC50)
1 | COc1cccc(N2CCN(C(=O)c3c(-c4cccc(F)c4)noc3N)CC2)c1 [Example 68, (5-amino-3-(3-fluorophenyl)isoxazol-4-yl)(4-(3-methoxyphenyl)piperazine-1-yl)methanone] | 3.03 to 7.81 | 17.5 to 29 (≈ 44.1 to 73.2 µM) | 88.1 to 137 (≈ 222 to 345 µM) | ◯ |  |  |  |  | 
2 | COc1cccc(N2CCN(C(=O)c3c(-c4ccccc4Cl)noc3N)CC2)c1 [Example 60, (5-amino-3-(2-chlorophenyl)isoxazol-4-yl)(4-(3-methoxyphenyl)piperazine-1-yl)methanone] |  | 0.195 (≈ 0.473 µM) | > 500 | ◯ | 0.053 to 0.094 (≈ 0.128 to 0.228 µM) | 80< | 6.25 (≈ 15.1 µM) | > 2000 | 
3 | Nc1onc(-c2cccc(F)c2)c1C(=O)N1CCN(c2ccccc2O)CC1 [Example 72, (5-amino-3-(3-fluorophenyl)isoxazol-4-yl)(4-(2-hydroxyphenyl)piperazine-1-yl)methanone] | 0.31 to 1.25 | 25 to 50 (≈ 65.4 to 131 µM) | 15.6 to 31.2 (≈ 40.8 to 81.7 µM) | ◯ |  |  |  |  | 
4 | Cc1onc(-c2ccc(OC(F)(F)F)cc2)c1C(=O)N1CCN(c2ccc(Cl)c(Cl)c2)CC1 [Example 27, (4-(3,4-dichlorophenyl)piperazine-1-yl)(5-methyl-3-(4-(trifluoromethoxy)phenyl)isoxazol-4-yl)methanone] | 2.5 to 8.13 | 2.4 to 3.9 (≈ 4.8 to 7.8 µM) | 9.77 to 19.5 (≈ 19.5 to 39 µM) | ◯ |  |  |  | > 2000 | 
5 | Nc1onc(-c2cccc(F)c2)c1C(=O)N1CCN(c2ccc(Cl)c(Cl)c2)CC1 [Example 67, (5-amino-3-(3-fluorophenyl)isoxazol-4-yl)(4-(3,4-dichlorophenyl)piperazine-1-yl)methanone] | 2.59 to 8.85 | 2.4 to 3.9 (≈ 5.51 to 8.96 µM) | 10.1 to 21.2 (≈ 23.2 to 48.8 µM) | ◯ |  |  |  |  | 
6 | CCOC(=O)C1CCN(C(=O)c2c(-c3ccccc3Cl)noc2N)CC1 [Example 122, ethyl-1-(5-amino-3-(2-chlorophenyl)isoxazol-4-carbonyl)piperidine-4-carboxylate] | 18.89 to 71.27 | 4.5 to 8.5 (≈ 11.9 to 22.5 µM) | 161 to 321 (≈ 425 to 849 µM) | ◯ |  |  |  | > 2000 | 
7 | Nc1onc(-c2cccc(OC(F)(F)F)c2)c1C(=O)N1CCN(c2ccc(Cl)c(Cl)c2)CC1 [Example 115, (5-amino-3-(3-(trifluoromethoxy)phenyl)isoxazol-4-yl)(4-(3,4-dichlorophenyl)piperazine-1-yl)methanone] | 0.34 to 1.70 | 21 to 45 (≈ 41.9 to 89.8 µM) | 15.5 to 35.8 (≈ 30.9 to 71.3 µM) | ◯ |  |  |  |  | 
8 | Cc1onc(-c2cccc(F)c2)c1C(=O)N1CCN(c2ccc(Cl)c(Cl)c2)CC1 [Example 11, (4-(3,4-dichlorophenyl)piperazine-1-yl)(3-(3-fluorophenyl)-5-methylisoxazol-4-yl)methanone] |  | < 0.16 | 287 to 625 (≈ 661 to 1440 µM) | ◯ | 0.087 to 0.199 (≈ 0.2 to 0.458 µM) | 67.529 to 147.058 | 4.25 (≈ 9.79 µM) | > 2000 | 1442.211 to 7183.908
9 | COc1ccccc1N1CCN(C(=O)c2c(-c3cccc(OC(F)(F)F)c3)noc2C)CC1 [Example 53, (4-(2-methoxyphenyl)piperazine-1-yl)(5-methyl-3-(3-(trifluoromethoxy)phenyl)isoxazol-4-yl)methanone] | 160< | 3.12 (≈ 6.76 µM) | > 500 | ◯ |  |  |  |  | 
10 | Nc1onc(-c2ccccc2C(F)(F)F)c1C(=O)N1CCN(c2ccc(Cl)c(Cl)c2)CC1 [Example 91, (5-amino-3-(2-(trifluoromethyl)phenyl)isoxazol-4-yl)(4-(3,4-dichlorophenyl)piperazine-1-yl)methanone] | 0.71 to 2.39 | 12.4 to 25.8 (≈ 25.7 to 53.2 µM) | 18.4 to 29.9 (≈ 37.8 to 61.6 µM) | ◯ |  |  |  |  | 
11 | Cc1onc(-c2cccc(C(F)(F)F)c2)c1C(=O)N1CCN(c2ccc(Cl)c(Cl)c2)CC1 [Example 43, (4-(3,4-dichlorophenyl)piperazine-1-yl)(5-methyl-3-(3-(trifluoromethyl)phenyl)isoxazol-4-yl)methanone] |  | > 50 | 2500 (≈ 5160 µM) | X |  |  |  |  | 
12 | COc1cccc(N2CCN(C(=O)c3c(-c4ccc(OC(F)(F)F)cc4)noc3N)CC2)c1 [Example 100, (5-amino-3-(4-(trifluoromethoxy)phenyl)isoxazol-4-yl)(4-(3-methoxyphenyl)piperazine-1-yl)methanone] | 0.49 to 12.57 | 29 to 37 (≈ 62.7 to 80 µM) | 18.4 to 46.5 (≈ 39.9 to 101 µM) | ◯ |  |  |  |  | 
13 | COc1ccccc1N1CCN(C(=O)c2c(-c3ccccc3Cl)noc2N)CC1 [Example 61, (5-amino-3-(2-chlorophenyl)isoxazol-4-yl)(4-(2-methoxyphenyl)piperazine-1-yl)methanone] | 159.94 to 319.89 | 0.39 (≈ 0.945 µM) | 62.5 to 125 (≈ 151 to 303 µM) | ◯ |  |  |  | > 2000 | 
14 | Cc1onc(-c2cccc(OC(F)(F)F)c2)c1C(=O)N1CCN(c2ccc(Cl)c(Cl)c2)CC1 [Example 51, (4-(3,4-dichlorophenyl)piperazine-1-yl)(5-methyl-3-(3-(trifluoromethoxy)phenyl)isoxazol-4-yl)methanone] | 3.91 to 10.80 | 2.4 to 3.9 (≈ 4.8 to 7.8 µM) | 15.2 to 25.9 (≈ 30.5 to 51.8 µM) | ◯ |  |  |  |  | 
15 | Nc1onc(-c2ccccc2F)c1C(=O)N1CCN(c2ccc(Cl)c(Cl)c2)CC1 [Example 75, (5-amino-3-(2-fluorophenyl)isoxazol-4-yl)(4-(3,4-dichlorophenyl)piperazine-1-yl)methanone] | 12.5 to 25.0 | > 50 | 625 to 1250 (≈ 1440 to 2870 µM) | ◯ |  |  |  |  | 
16 | COc1cccc(N2CCN(C(=O)c3c(-c4cccc(OC(F)(F)F)c4)noc3N)CC2)c1 [Example 116, (5-amino-3-(3-(trifluoromethoxy)phenyl)isoxazol-4-yl)(4-(3-methoxyphenyl)piperazine-1-yl)methanone] | 0.42 to 1.70 | 15 to 32 (≈ 32.4 to 69.2 µM) | 13.7 to 25.6 (≈ 29.5 to 55.4 µM) | ◯ |  |  |  |  | 
17 | Nc1onc(-c2cccc(C(F)(F)F)c2)c1C(=O)N1CCN(c2ccc(Cl)c(Cl)c2)CC1 [Example 107, (5-amino-3-(3-(trifluoromethyl)phenyl)isoxazol-4-yl)(4-(3,4-dichlorophenyl)piperazine-1-yl)methanone] | 31.34 to 62.68 | 2.72 to 3.9 (≈ 5.6 to 8.04 µM) | 122 to 170 (≈ 252 to 351 µM) | ◯ |  |  |  | > 2000 | 
18 | Nc1onc(-c2cccc(C(F)(F)F)c2)c1C(=O)N1CCN(c2ccccc2O)CC1 [Example 112, (5-amino-3-(3-(trifluoromethyl)phenyl)isoxazol-4-yl)(4-(2-hydroxyphenyl)piperazine-1-yl)methanone] | 0.33 to 1.37 | 25 to 50 (≈ 57.8 to 116 µM) | 16.5 to 34.3 (≈ 38.2 to 79.3 µM) | ◯ |  |  |  |  | 
19 | COc1ccccc1N1CCN(C(=O)c2c(-c3cccc(C(F)(F)F)c3)noc2N)CC1 [Example 109, (5-amino-3-(3-(trifluoromethyl)phenyl)isoxazol-4-yl)(4-(2-methoxyphenyl)piperazine-1-yl)methanone] | 42.07 to 125.4 | 1.52 to 3.5 (≈ 3.4 to 7.84 µM) | 147 to 191 (≈ 330 to 427 µM) | ◯ |  |  |  | > 2000 | 
